The source of these data is paper PMC9884426, “A phase 1 clinical trial of the repurposable acetyllysine mimetic, n-methyl-2-pyrrolidone (NMP), in relapsed or refractory multiple myeloma” (Clinical Epigenetics, 2023).

Several values for one entry are separate records, joined by “and”; a condition that tells them apart may be missing. Equal values may be shown once.

For one data set, the system named is Healthy human volunteers. Set-up: method as in PMID 9029058, PMID 15458014. The settings on record: up to 100 mg orally and 300 mg transdermally; cited from earlier work.
Data set [1] relates to relapsed/refractory multiple myeloma (RR–MM). In words: Phase 1 trial of oral NMP: efficacy (IMWG response, progression-free and overall survival). In kind it is in vivo, human. Here is the method: This was a phase 1, open-label dose-escalation trial of orally administered NMP in patients with relapsed/refractory multiple myeloma (RR–MM). Eligible patients were ≥ 18 years old with Eastern Cooperative Oncology Group (ECOG) < 2 and histologically confirmed plasma cell myeloma defined by WHO 2008 criteria with measurable disease (defined by serum M-protein > 5 g/L, urine M-protein > 200 mg/24 h, involved serum free light chain > 100 mg/L or measurable soft tissue plasmacytoma). Patients were required to have relapsed following prior treatment and/or be refractory to or intolerant of both bortezomib and lenalidomide and must have undergone autologous stem cell transplant (unless deemed ineligible at investigator discretion). Exclusion criteria included: central nervous system involvement, active second malignancy within two years, uncontrolled medical conditions contraindicating an investigational agent due to inadequate organ function and concomitant exposure to anti-myeloma therapies.
The primary study endpoint was to determine the MTD of orally administered NMP in patients with RR–MM. Secondary endpoints included safety, PK analyses, IMWG defined response rate and exploratory immunological biomarkers. Adverse events were defined according to Common Terminology Criteria for Adverse Events (CTCAE version 4.03). Haematological DLTs were defined as grade 4 neutropenia unresponsive to G-CSF, grade 4 thrombocytopenia and febrile neutropenia. Non-haematological DLTs were grade 3 or higher and considered probably related to study drug and not attributable to disease progression and those resulting treatment delays greater than two weeks due to drug-related toxicity. Self-limited (< 24 h) gastrointestinal side effects (e.g. nausea, diarrhoea) responding to supportive measures were not classified as DLTs.
Pharmaceutical grade NMP stock solution (Ashland, Columbus, OH, USA) was diluted in ORA SWEET® SF (Medical Flavouring Systems, Vic, Australia) oral syrup vehicle and sterile water to a final concentration of 50 mg/mL and dispensed weekly in amber glass bottles for storage a room temperature. […] Intra-patient dose escalation at 100 mg increments was also permitted whereby the MTD had not been determined and the patient tolerated two consecutive cycles without DLT or an objective disease response. […]
The study was planned to recruit up to 20 patients, 15 in the dose finding cohort and five as a dose expansion. […] Time to progression was calculated from the first day of treatment to progression using the Kaplan–Meier method. Flow cytometry and gene expression data were analysed using GraphPad Prism (version 6.0; GraphPad Software, San Diego, CA). Data were analysed using Wilcoxon’s matched pairs signed rank test compared with baseline samples (*p < 0.05).

In the case of `CN1CCCC1=O` [NMP, N-methyl-2-pyrrolidone], the “acute adverse effects after a single dose” value with Healthy human volunteers was “no acute adverse effects”. In addition, the Median overall survival in data set [1] (13 RR–MM patients, 95% CI 9.7– > 44.5 months, median follow-up 43.5 months) is 33.1 months and 33 months. In addition, in data set [1] (13 RR–MM patients, range 29–539 days), the Median progression-free survival is listed as 57 days. Also, the “IMWG objective disease response (partial response or better), ORR” value in data set [1] (13 patients, 95% CI 0–25%) is 0%. Further, in data set [1] (nine of 13 patients, 95% CI 39–91%), the “best response of stable disease (SD), patients” value turned out to be 69%.
